Data on six molecules can be found in patent US20080248032A1, “COMPOSITIONS AND METHODS FOR PROTECTION AGAINST CARDIAC AND/OR CENTRAL NERVOUS SYSTEM TISSUE INJURY BY INHIBITING SPHINGOSINE-1-PHOSPHATE LYASE” (CHILDREN'S HOSPITAL & RESEARCH CENTER AT OAKLAND, priority 2006, published 2008).

Assay [1] concerns HEK293 kidney cells stably overexpressing human SPL (hSPL). Description: Viability by MTT assay with daunorubicin, vector vs hSPL cells. The conditions noted are these: hSPL cells vs vector control; FIG. 2. It counts as cell-based. Here is the method: In an additional experiment, HEK293 cells expressing human SPL or vector control were treated with daunorubicin (DNR), and viability was determined by MTT assay. This assay relies on reduction of 3-(4,5-dimethylthiazol-2-yl)-2,5-diphenyl tetrazolium bromide (MTT reagent) by viable cells.

In assay [2] the test system is ischemia/reperfusion (I/R) injury. In words: Langendorff isolated heart ischemia/reperfusion, hearts from THI-treated mice. Type of assay: in vivo, C57BL6 male mice. Here is the method:
C57BL6 male mice were given THI in the water supply for 3 days. […] This example describes use of an isolated perfused heart model system for assessing cardioprotective effects of SPL inhibitors. […] Platinum electrodes connected to a stimulus generator are used to pace hearts at 360 beats/min. […] The balloon is inserted through the left atrium into the left ventricle, and pressures are recorded continuously on a chart recorder. Coronary flow is measured by collecting effluent from the coronary sinus. Noninvasive measurement of LV size and function are performed using standard echocardiographic methods in unanesthetized mice. LV dimensions, fractional shortening and ejection fraction are calculated before and at the end of a treatment period, before sacrifice in all animals.

In assay [3] the test system is bst1Δ cells. In words: Sphingosine sensitivity of yeast growth, bst1Δ strain. It counts as cell-based, Saccharomyces cerevisiae. The conditions noted are these: concentrations as low as 10 μM sphingosine. The text has this:
(§1) A further test for SPL activity may be based upon functional complementation in the bst1Δ strain. It has been found, within the context of the present invention, that bst1Δ cells are highly sensitive to D-erythro-sphingosine. […] Such a level of sphingosine has no effect on the growth of wildtype cells.
(§2) A further test for SPL activity may be based upon functional complementation in the bst1Δ strain of Saccharomyces cerevisiae (Saba et al., 1997 J. Biol. Chem. 272:26087). It was been found, within the context of the presently disclosed embodiments, that bst1Δ cells were highly sensitive to D-erythro-sphingosine. […] Such a level of sphingosine had no effect on the growth of wildtype cells.

Assay [4] deals with wildtype cells. Description: Sphingosine sensitivity of yeast growth, wildtype. Type of assay: cell-based, Saccharomyces cerevisiae. The conditions noted are these: 10 μM sphingosine.
Source text: as §1, §2

The test system of assay [5] is SPL induced apoptosis. To be noted: cells overexpressing SPL; cited from earlier work.
Assay [6] deals with HEK294 cells expressing human SPL cDNA construct (hSPL). Description: Viability by MTT assay with doxorubicin, vector vs hSPL cells. It counts as cell-based. The conditions noted are these: cells overexpressing SPL vs pcDNA3 vector; 24 h or 48 h; FIG. 1. Here is the method:
HEK294 cells expressing either pcDNA3 vector (PC) or a human SPL cDNA construct (hSPL) were incubated for 24 h (black bars) or 48 h (white bars) with doxorubicin, harvested and viability was determined by MTT assay. (Mosmann, J Immunol Methods, 1983, 65(1-2): 55-63).
(Tetrazolium dyes change colour on reduction, which living cells bring about.)

The structures appear in SMILES notation. Where “and” joins values, the source holds several entries; their conditions need not be identical. Equal values may be shown once.

As for `COc1cccc2c1C(=O)c1c(O)c3c(c(O)c1C2=O)C[C@@](O)(C(C)=O)C[C@@H]3O[C@H]1C[C@H](N)[C@H](O)[C@H](C)O1` [daunorubicin], in assay [1], the “sensitivity to daunorubicin (viability, MTT)” value is “more sensitive”.
On to `CC(=O)c1nc(C(O)C(O)C(O)CO)c[nH]1` (centres unmarked) [THI, 2-acetyl-4-tetrahydroxybutylimidazole], for which the “size of infarction (tissue uptake of tetrazolium red, TTC)” value in assay [2] (after 50 min ischemia, 40 min reperfusion, control heart 35%) is 17%. In addition, the “LVEDP (LV end-diastolic pressure)” value in assay [2] (after 50 min no-flow ischemia, 40 min reperfusion, control heart 52) is recorded as 34 mmHg. For the same molecule, in assay [2] (average of 3 animals), the “LVDP % Recovery, Ave.” value is on record as 59.2%; the “LVDP Baseline, Ave.” value amounted to 133.0 mmHg; the “LVDP Reperf. 40′, Ave.” value was 79.7 mmHg. Besides, the “LVDP (Left Ventricular Developed Pressure), Reperf. 40′” value in assay [2] (individual animals, 50 min no-flow ischemia, 40 min reperfusion) was 52 mmHg and 88 mmHg and 99 mmHg. Moreover, the “LVDP % Recovery” value in assay [2] (individual animals, Reperf. 40′ vs Baseline) is 42.6% and 64.2% and 70.7%. Further, in assay [2] (individual animals, before ischemia), the “LVDP (Left Ventricular Developed Pressure), Baseline” value is 122 mmHg and 137 mmHg and 140 mmHg.
With `CCCCCCCCCCCCC/C=C/[C@@H](O)[C@@H](N)CO` [sphingosine, D-erythro-sphingosine], in assay [3], the “growth of bst1Δ cells” value is on record as “completely inhibit”. Further, in assay [4], the “growth of wildtype cells” value is recorded as “no effect”.
`Cc1ccc(C(=O)Cn2c3c(sc2=N)CCCC3)cc1` [pifithrin α]: in assay [5], the “effect on SPL induced apoptosis” value is “attenuation”.
With `COc1cccc2c1C(=O)c1c(O)c3c(c(O)c1C2=O)C[C@@](O)(C(=O)CO)C[C@@H]3O[C@H]1C[C@H](N)[C@H](O)[C@H](C)O1` [doxorubicin], in assay [6], the “cell survival in the presence of doxorubicin” value was “significantly reduced”.
For the molecule `C[S+]([O-])c1ccc(-c2nc(-c3ccncc3)c(-c3ccc(F)cc3)[nH]2)cc1` (centres unmarked) [SB203580], the “effect on SPL induced apoptosis” value in assay [5] was “attenuation”.
